Test results taken from PubChem BioAssay AID1963856 (Molecular Pharmacology Branch, DTP, NCI, 2024).

System: LG0567-F671-PDC KRAS tumor spheroid viability
Experiment: Anticancer human tumor LG0567-F671-PDC patient-derived lung adenocarcinoma cell line growth inhibition [KRAS2]
Conditions: spheroids with HUVEC and MSC; for IC50: curve of first compound; for viability, T/C: stronger effect = lower value
Source text: Multicellular complex tumor spheroid response to RAS pathway inhibitors in combination with a targeted agents in patient-derived cell lines with oncogenic KRAS variants from multiple cancer types
A high-throughput screen of multi-cell type tumor spheroids was designed to identify active combinations of targeted small molecules and KRAS pathway inhibitors. Complex spheroids include a stromal component modeled by human endothelial cells (HUVEC) and fibroblasts modeled by human mesenchymal stem cells (MSCs). The concentration ranges selected for each drug and investigational agent were based upon clinically achievable concentrations if the clinical Cmax of the agent was known.
Compounds. The drugs and investigational agents: BI-3406 (NSC825286), BAY-293 (NSC824723), batoprotafib (TNO155; NSC825523), sotorasib (AMG 510; NSC818433), MRTX1257 (NSC819558), elimusertib (BAY 1895344; NSC800525), molibresib (GSK525762; NSC774829), temuterkib (LY3214996; NSC803410), venetoclax (NSC766270), alisertib (NSC759677), olaparib (NSC753686), talazoparib (NSC767125), erdafitinib (NSC781556), ipatasertib (NSC767898), cabozantinib (NSC761068), nintedanib (NSC756659), abemaciclib (NSC768073), docetaxel (NSC628503), trametinib (NSC758246), and sapanisertib (NSC764658) were obtained from the National Cancer Institute (NCI) Developmental Therapeutics Program Chemical Repository. The FDA-approved anticancer drug set is available from the Developmental Therapeutics Program. […] The stock solutions were prepared in dimethyl sulfoxide (DMSO, Sigma-Aldrich, St. Louis, MO, cat. D2650) at 800-fold the tested concentration and stored at -70 degrees C prior to their use. All drugs and investigational agents were tested over a range starting from a high concentration at or near the clinical Cmax and decreasing in half-log increments. If the clinical Cmax for an agent had not been determined, the highest concentration tested was 10 microM.
Cell Culture. All cells were maintained in an incubator at 37 degrees C and 5% CO2 with 95% humidity. The PDC lines were cultured according to standard operating procedures established by the NCI PDMR (https://pdmr.cancer.gov/sops/default.htm). Briefly, all PDCs were thawed and cultured in Matrigel-coated flasks prepared with a working solution of 1X Ham's F-12 nutrient mix, without supplementation (Invitrogen, Waltham, MA, cat. 11765054), 100 U/mL penicillin-streptomycin (Invitrogen, cat. 15140122), and 2.5% Matrigel (Corning Inc., Corning, NY, cat. 354248) for the first three passages. All PDCs were cultured in complete DMEM/F-12 media containing advanced DMEM/F-12 (Invitrogen, cat. 12634028), 4.9% defined fetal bovine serum, heat inactivated (HyClone Laboratories Inc., Logan, UT, cat. SH30070.03HI), 389 ng/mL hydrocortisone (Sigma-Aldrich, cat. H4001), 9.7 ng/mL human EGF recombinant protein (Invitrogen, cat. PHG0313), 23.4 microg/mL adenine (Sigma-Aldrich, cat. A2786), 97.3 U/mL penicillin-streptomycin (Invitrogen, cat. 15140122), 1.9 mM L-glutamine (Invitrogen, cat. 25030081), and 9.7 microM Y-27632 dihydrochloride (Tocris Bioscience, Bristol, United Kingdom, cat. 1254). The PDCs were cultured in complete DMEM/F12 media without 9.7 microM Y-27632 dihydrochloride for at least two passages prior to the screen. The established cell line HOP-62 was cultured in RPMI 1640 medium, HEPES (Invitrogen, cat. 22400105) with 10% defined fetal bovine serum (HyClone Laboratories Inc., cat. SH30070.03) and 2 mM L-glutamine (Invitrogen, cat. 25030081). The pooled donor HUVEC were cultured in endothelial cell growth medium 2 (PromoCell, Heidelberg, Germany, cat. C-22011) and the hMSC were cultured in mesenchymal stem cell growth medium 2 (PromoCell, cat. C-28009). For all experiments, HUVEC and hMSC were used at passages </=5, while the malignant cell lines were used at passages </=15. […]
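Further: drug exposure lasted seven days after spheroids formed for three days.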
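Wherever viability, T/C is given: 100% = DMSO vehicle control viability.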

CC1OCC2(CCN(c3cnc(Sc4ccnc(N)c4Cl)c(N)n3)CC2)C1N (stereo not given) + CNCc1ccccc1-c1csc(C(C)Nc2nc(C)nc3cc(OC)c(OC)cc23)c1
IC50 (second compound 0.1 µM): 68.1 nM | IC50 (second compound 0.316 µM): 53.3 nM | IC50 (second compound 1 µM): 75 nM | IC50 (second compound 3.16 µM): 221 nM | IC50 (second compound 10 µM): < 31.6 nM | viability, T/C (second compound 0.1 µM, first compound 0.0316 µM): 60.4% | viability, T/C (second compound 0.1 µM, first compound 0.1 µM): 44.5% | viability, T/C (second compound 0.1 µM, first compound 0.316 µM): 33.3% | viability, T/C (second compound 0.1 µM, first compound 1 µM): 28.6% | viability, T/C (second compound 0.1 µM, first compound 3.16 µM): 23.6% | viability, T/C (second compound 0.1 µM, first compound 10 µM): 17.7% | viability, T/C (second compound 0.316 µM, first compound 0.0316 µM): 57.1% | viability, T/C (second compound 0.316 µM, first compound 0.1 µM): 41.6% | viability, T/C (second compound 0.316 µM, first compound 0.316 µM): 30% | viability, T/C (second compound 0.316 µM, first compound 1 µM): 23.3% | viability, T/C (second compound 0.316 µM, first compound 3.16 µM): 22.1% | viability, T/C (second compound 0.316 µM, first compound 10 µM): 14.6% | viability, T/C (second compound 1 µM, first compound 0.0316 µM): 61.5% | viability, T/C (second compound 1 µM, first compound 0.1 µM): 43.4% | viability, T/C (second compound 1 µM, first compound 0.316 µM): 38.4% | viability, T/C (second compound 1 µM, first compound 1 µM): 24.8% | viability, T/C (second compound 1 µM, first compound 3.16 µM): 18.1% | viability, T/C (second compound 1 µM, first compound 10 µM): 13.5% | viability, T/C (second compound 3.16 µM, first compound 0.0316 µM): 79.2% | viability, T/C (second compound 3.16 µM, first compound 0.1 µM): 65.7% | viability, T/C (second compound 3.16 µM, first compound 0.316 µM): 43.8% | viability, T/C (second compound 3.16 µM, first compound 1 µM): 13.4% | viability, T/C (second compound 3.16 µM, first compound 3.16 µM): 3.22% | viability, T/C (second compound 3.16 µM, first compound 10 µM): 3.6% | viability, T/C (second compound 10 µM, first compound 0.0316 µM): 0.2% | viability, T/C (second compound 10 µM, first compound 0.1 µM): 0.17% | viability, T/C (second compound 10 µM, first compound 0.316 µM): 0.16% | viability, T/C (second compound 10 µM, first compound 1 µM): 0.14% | viability, T/C (second compound 10 µM, first compound 3.16 µM): 0.13% | viability, T/C (second compound 10 µM, first compound 10 µM): 0.2%
